Experiments:
[1] = Half life in phosphate buffered saline at pH 7.4 by HPLC analysis; format: physicochemical
[2] = Apparent partition coefficient, log P of the compound in 1-octanol/phosphate buffer at pH 7.4 measured after 30 mins by HPLC analysis; format: physicochemical; conditions: read-out: LogD7.4
[3] = Half life in 80% human plasma by HPLC analysis; format: ADME, cell-free
[4] = Prodrug activation assessed as mushroom tyrosinase-mediated compound hydrolysis by measuring half life in presence of 100 U/ml of tyrosinase by HPLC analysis; conditions: agaricus bisporus
[5] = Cytotoxicity against human MNT1 cells after 72 hrs by MTS assay; format: functional, cell-based; conditions: MNT-1, 72 h
B16-F10 = experiment: Cytotoxicity against mouse B16F10 cells after 72 hrs by MTS assay; format: functional, cell-based; conditions: B16-F10, 72 h
HaCaT = experiment: Cytotoxicity against human HaCaT cells after 72 hrs by MTS assay; format: cell-based
mushroom tyrosinase [6] = molecular target: T1, mushroom tyrosinase (Agaricus bisporus, UniProt C7FF04+C7FF05+O42713+Q00024); experiment: Drug metabolism assessed as mushroom tyrosinase-mediated compound consumption in presence of 100 U/ml of tyrosinase by HPLC method; format: ADME; conditions: read-out: Drug metabolism
[7] = Prodrug activation assessed as mushroom tyrosinase-mediated compound hydrolysis by measuring Pseudo first-order rate constants in presence of 100 U/ml of tyrosinase by HPLC analysis; conditions: agaricus bisporus
[8] = Half life in deuterated phosphate buffer at pH 7.8 by 1H-NMR spectra analysis; format: physicochemical
[9] = Stability of the compound in phosphate buffered saline at pH 7.4 assessed as parent compound remaining measured after 8 days by HPLC analysis; format: physicochemical; conditions: read-out: Stability
Mushroom tyrosinase [10] = molecular target: T2, Mushroom tyrosinase (Agaricus bisporus, UniProt O42713+Q00024+C7FF04+C7FF05); experiment: (§1) Drug metabolism assessed as mushroom tyrosinase-mediated compound oxidation by Michaelis-Menten plot analysis; format: ADME
mushroom tyrosinase [11] = molecular target: T1, mushroom tyrosinase; experiment: as §1; format: ADME; conditions: mushroom tyrosinase
Mushroom tyrosinase [12] = molecular target: T2, Mushroom tyrosinase; experiment: Ratio of Kcat to Km for mushroom tyrosinase-mediated compound oxidation; format: ADME
[13] = Retention time of the compound in phosphate buffered saline at pH 7.4 by HPLC method
Plasma = experiment: Retention time of the compound in 80% human plasma by HPLC method; format: ADME, cell-free
Mushroom tyrosinase [14] = molecular target: T2, Mushroom tyrosinase; experiment: Drug metabolism assessed as mushroom tyrosinase-mediated compound hydrolysis by measuring retention time by HPLC method; format: ADME
[15] = Prodrug activation assessed as mushroom tyrosinase-mediated compound hydrolysis by measuring Pseudo first-order rate constants in presence of 300 U/ml of tyrosinase by HPLC analysis; conditions: agaricus bisporus
mushroom tyrosinase [16] = molecular target: T1, mushroom tyrosinase; experiment: Drug metabolism assessed as mushroom tyrosinase-mediated compound consumption in presence of 300 U/ml of tyrosinase by HPLC method; format: ADME; conditions: read-out: Drug metabolism
[17] = Prodrug activation assessed as mushroom tyrosinase-mediated compound hydrolysis by measuring half life in presence of 300 U/ml of tyrosinase by HPLC analysis; conditions: agaricus bisporus
NCCc1ccc(O)c(O)c1 = experiment: (§2) Substrate activity at mushroom tyrosinase monophenolase activity by spectrophotometry based Michaelis-Menten plot analysis; conditions: Agaricus bisporus
[18] = system: N[C@@H](Cc1ccc(O)cc1)C(=O)O; experiment: as §2; conditions: Agaricus bisporus
O=C(O)Cc1ccc(O)cc1 = experiment: as §2; conditions: Agaricus bisporus

Chain of Mushroom tyrosinase (Agaricus bisporus) (C7FF05 whole entry, looked up): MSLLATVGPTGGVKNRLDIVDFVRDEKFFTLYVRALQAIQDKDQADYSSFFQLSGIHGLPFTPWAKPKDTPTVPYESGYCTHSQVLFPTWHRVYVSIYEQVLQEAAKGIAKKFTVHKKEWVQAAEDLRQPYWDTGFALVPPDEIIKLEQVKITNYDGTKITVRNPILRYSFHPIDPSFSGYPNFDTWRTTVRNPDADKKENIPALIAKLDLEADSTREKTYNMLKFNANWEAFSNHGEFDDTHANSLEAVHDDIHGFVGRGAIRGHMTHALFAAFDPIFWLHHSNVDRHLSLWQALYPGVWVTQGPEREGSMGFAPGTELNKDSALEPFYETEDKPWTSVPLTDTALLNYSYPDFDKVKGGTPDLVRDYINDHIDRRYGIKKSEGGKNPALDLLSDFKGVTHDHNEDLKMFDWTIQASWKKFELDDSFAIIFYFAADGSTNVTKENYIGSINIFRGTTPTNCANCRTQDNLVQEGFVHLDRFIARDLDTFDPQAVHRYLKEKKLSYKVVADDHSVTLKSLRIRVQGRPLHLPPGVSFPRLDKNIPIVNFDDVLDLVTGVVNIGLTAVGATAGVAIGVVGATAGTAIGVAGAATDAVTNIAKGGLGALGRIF
Chain of Mushroom tyrosinase (Agaricus bisporus) (C7FF04 whole entry, looked up): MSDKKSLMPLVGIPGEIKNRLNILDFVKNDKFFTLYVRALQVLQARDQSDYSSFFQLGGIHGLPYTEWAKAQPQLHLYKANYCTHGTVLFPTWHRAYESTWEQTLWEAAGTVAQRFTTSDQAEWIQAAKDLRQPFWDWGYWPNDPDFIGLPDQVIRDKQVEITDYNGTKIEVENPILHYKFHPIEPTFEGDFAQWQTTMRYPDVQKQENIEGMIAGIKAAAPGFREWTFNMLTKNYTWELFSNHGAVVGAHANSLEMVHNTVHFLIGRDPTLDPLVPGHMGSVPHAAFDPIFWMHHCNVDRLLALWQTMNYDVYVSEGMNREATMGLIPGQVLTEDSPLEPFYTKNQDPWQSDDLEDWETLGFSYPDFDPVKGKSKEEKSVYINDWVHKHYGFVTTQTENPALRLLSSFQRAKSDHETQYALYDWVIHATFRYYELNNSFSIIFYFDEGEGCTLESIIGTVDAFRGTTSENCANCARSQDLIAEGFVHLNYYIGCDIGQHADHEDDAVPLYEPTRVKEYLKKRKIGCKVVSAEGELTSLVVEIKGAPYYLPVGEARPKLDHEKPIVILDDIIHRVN
Chain of Mushroom tyrosinase (Agaricus bisporus) (Q00024 whole entry, looked up): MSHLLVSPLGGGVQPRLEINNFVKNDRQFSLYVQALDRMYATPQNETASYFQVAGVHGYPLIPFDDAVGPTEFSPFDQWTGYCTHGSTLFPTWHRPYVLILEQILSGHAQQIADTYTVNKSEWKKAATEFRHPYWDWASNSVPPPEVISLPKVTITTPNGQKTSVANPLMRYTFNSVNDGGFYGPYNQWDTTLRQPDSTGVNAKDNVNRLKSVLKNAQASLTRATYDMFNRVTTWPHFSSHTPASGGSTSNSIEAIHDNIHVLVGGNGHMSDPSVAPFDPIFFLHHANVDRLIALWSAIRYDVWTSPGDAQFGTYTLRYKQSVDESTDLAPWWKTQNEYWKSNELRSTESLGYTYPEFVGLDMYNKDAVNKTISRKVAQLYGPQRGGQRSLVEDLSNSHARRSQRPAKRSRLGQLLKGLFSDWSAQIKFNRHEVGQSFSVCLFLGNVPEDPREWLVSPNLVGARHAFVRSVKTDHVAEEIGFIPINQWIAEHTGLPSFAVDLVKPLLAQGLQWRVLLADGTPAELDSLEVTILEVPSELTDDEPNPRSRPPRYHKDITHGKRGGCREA
Chain of Mushroom tyrosinase (Agaricus bisporus) (O42713 whole entry, looked up): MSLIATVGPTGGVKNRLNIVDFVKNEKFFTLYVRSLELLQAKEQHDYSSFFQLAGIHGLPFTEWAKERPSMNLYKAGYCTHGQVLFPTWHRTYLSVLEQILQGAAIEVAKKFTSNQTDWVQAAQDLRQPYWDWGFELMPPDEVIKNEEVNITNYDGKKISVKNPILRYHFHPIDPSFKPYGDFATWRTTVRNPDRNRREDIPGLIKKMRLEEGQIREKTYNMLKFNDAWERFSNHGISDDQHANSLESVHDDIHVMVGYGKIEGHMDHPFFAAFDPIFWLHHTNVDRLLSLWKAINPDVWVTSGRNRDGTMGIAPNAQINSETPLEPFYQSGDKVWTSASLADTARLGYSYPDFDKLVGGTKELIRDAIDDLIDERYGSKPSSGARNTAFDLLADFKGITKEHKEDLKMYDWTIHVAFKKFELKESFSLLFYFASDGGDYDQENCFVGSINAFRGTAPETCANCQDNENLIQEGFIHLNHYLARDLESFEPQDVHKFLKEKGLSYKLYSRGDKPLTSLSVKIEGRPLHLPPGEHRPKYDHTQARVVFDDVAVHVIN

| Compound | half-life [1] | logD at 0.5 h [2] | half-life [3] | t1/2 [4] | IC50 [5] | IC50 (B16-F10) | IC50 (HaCaT) | half-life [8] | further results |
| --- | --- | --- | --- | --- | --- | --- | --- | --- | --- |
| CN(/N=N/c1ccc(C#N)cc1)C(=O)CCc1ccc(O)cc1 | 3.17 days | 3.4 | 348 min | 1.5 min | > 75 µM | > 75 µM | 75 to 150 µM |  | metabolised (mushroom tyrosinase [6]): 100%; K [7]: 7.9 ×10⁻³ /s |
| CC(=O)Nc1ccc(OC(=O)N(C)/N=N/c2nc(OCc3ccccc3)c3nc[nH]c3n2)cc1 |  |  |  |  |  |  |  | 24 to 3500 min |  |
| Cn1nnc2c(C(N)=O)ncn2c1=O [TEMOZOLOMIDE] |  |  |  |  | > 75 µM | > 75 µM |  |  |  |
| CN(/N=N/c1ccc(C#N)cc1)C(=O)Cc1ccc(O)cc1 | 2 days | 2.99 | 88.8 min | 28 to 28.1 min |  |  |  |  |  |
| CN(/N=N/c1ccc(Br)cc1)C(=O)CCCCc1ccc(O)cc1 |  | 4.32 | 9690 min | 6.46 min | 45.8 µM | 52.2 µM | > 75 µM |  | remaining at 192 h [9]: 100% |
| COC(=O)c1ccc(/N=N/N(C)C(=O)CCCCc2ccc(O)cc2)cc1 | 5.16 days | 3.9 | 1050 min | 3.6 min | > 75 µM | > 75 µM | 75 to 150 µM |  | Kcat (Mushroom tyrosinase [10]): 0.013 s⁻¹; Vmax (Mushroom tyrosinase [10]): 0.018 µM/min; Km (mushroom tyrosinase [11]): 1080 µM; Kcat/Km (Mushroom tyrosinase [12]): 13.88 M⁻¹ s⁻¹ |
| CCOc1nc(/N=N/N(C)C(=O)Oc2ccc(C(=O)OC)cc2)nc2[nH]cnc12 |  |  |  |  |  |  |  | 24 to 3500 min |  |
| CC(=O)c1ccc(/N=N/N(C)C(=O)CCCCc2ccc(O)cc2)cc1 |  | 4 | 1960 min | 1.31 min | > 75 µM | > 75 µM | > 100 µM |  | remaining at 192 h [9]: 100% |
| CC(=O)c1ccc(/N=N/N(C)C(=O)CCc2ccc(OC(=O)CCc3ccc(O)cc3)cc2)cc1 |  |  |  | 5.5 min |  |  |  |  | K [7]: 2.1 ×10⁻³ /s |
| Nc1ccccc1 [ANILINE] |  |  |  |  |  |  |  |  | Retention time [13]: 2.4 min; Retention_time (Plasma): 2 min; Retention time (Mushroom tyrosinase [14]): 2 to 2.1 min |
| CN(/N=N/c1nc(OCc2ccccc2)c2nc[nH]c2n1)C(=O)Oc1ccc(C(N)=O)cc1 |  |  |  |  |  |  |  | 24 to 3500 min |  |
| COC(=O)c1ccc(/N=N/N(C)C(=O)CCc2cccc(O)c2)cc1 | 3.95 days | 3.42 | 468 min |  | > 75 µM | > 75 µM | 75 to 150 µM |  | K [15]: 9.1 ×10⁻⁶ /s; Retention time [13]: 12.5 min; metabolised (mushroom tyrosinase [16]): 97.5%; Retention_time (Mushroom tyrosinase [14]): 12.3 min; t1/2 [17]: 1270 min |
| CC(=O)N(C)/N=N/c1nc(OCc2ccccc2)c2nc[nH]c2n1 |  |  |  |  |  |  |  | 1330 to 3500 min |  |
| CCOC(=O)c1ccc(/N=N/N(C)C(=O)CCCCc2ccc(O)cc2)cc1 |  | 4.5 | 1580 min | 4.8 min | > 75 µM | > 75 µM | > 150 µM |  | remaining at 192 h [9]: 100% |
| COC(=O)c1ccc(/N=N/N(C)C(=O)CCc2ccc(O)cc2)cc1 | 4.23 days | 3.23 | 438 min | 2.46 to 2.5 min | > 75 µM | > 75 µM | 75 to 150 µM |  | metabolised (mushroom tyrosinase [6]): 100%; K [7]: 4.7 ×10⁻³ /s |
| CC(=O)c1ccc(/N=N/N(C)C(=O)CCc2ccc(O)cc2)cc1 | 5.11 days | 3.05 | 876 min | 3.6 to 3.66 min | > 75 µM | > 75 µM | 75 to 150 µM |  | metabolised (mushroom tyrosinase [6]): 100%; K [7]: 3.2 ×10⁻³ /s |
| Mushroom tyrosinase (Agaricus bisporus) (from UniProt O42713+Q00024+C7FF04+C7FF05) |  |  |  |  |  |  |  |  | Km (NCCc1ccc(O)c(O)c1): 280 µM; Km [18]: 250 µM; Km (O=C(O)Cc1ccc(O)cc1): 1910 µM |
| CN(/N=N/c1nc(OCc2ccccc2)c2nc[nH]c2n1)C(=O)c1ccc([N+](=O)[O-])cc1 |  |  |  |  |  |  |  | 1330 to 3500 min |  |
| Cc1ccc(/N=N/N(C)C(=O)CCCCc2ccc(O)cc2)cc1 |  | 4 | 4780 min | 0.74 min | 64.6 µM | 57.6 µM | > 150 µM |  | remaining at 192 h [9]: 100% |
| CCOc1nc(/N=N/N(C)C(=O)Oc2ccc([N+](=O)[O-])cc2)nc2[nH]cnc12 |  |  |  |  |  |  |  | 24 to 3500 min |  |
| CN(/N=N/c1ccc(C#N)cc1)C(=O)CCc1cccc(O)c1 | 2.5 days | 3.24 | 162 min |  | > 75 µM | > 75 µM | 75 to 150 µM |  | K [15]: 9.9 ×10⁻⁶ /s; Retention_time (Plasma): 8.8 min; metabolised (mushroom tyrosinase [16]): 91.1%; t1/2 [17]: 1167 min |
| COC(=O)c1ccc(/N=N/N(C)C(=O)CCc2ccc(OC(=O)CCc3ccc(O)cc3)cc2)cc1 |  |  |  | 6.4 min |  |  |  |  | K [7]: 1.8 ×10⁻³ /s |
| CCOC(=O)N(C)/N=N/c1nc(OCc2ccccc2)c2nc[nH]c2n1 |  |  |  |  |  |  |  | 24 to 3500 min |  |
| CN(/N=N/c1ccc(C(N)=O)cc1)C(=O)CCCCc1ccc(O)cc1 | 7.6 days | 3.6 | 3330 min | 5.8 min | > 75 µM | > 75 µM | 75 to 150 µM |  |  |
| CN(/N=N/c1ccc(C(N)=O)cc1)C(=O)CCc1ccc(O)cc1 | 4.92 days | 2.8 | 2910 min | 4.6 to 4.62 min | > 75 µM | > 75 µM | 75 to 150 µM |  | metabolised (mushroom tyrosinase [6]): 100%; K [7]: 2.5 ×10⁻³ /s |
| CCOc1nc(/N=N/N(C)C(=O)Oc2ccc(S(N)(=O)=O)cc2)nc2[nH]cnc12 |  |  |  |  |  |  |  | 24 to 3500 min |  |
| CN(/N=N/c1ccc(C#N)cc1)C(=O)CCCCc1ccc(O)cc1 | 3.44 days | 4.3 | 710 min | 4.2 min | > 75 µM | > 75 µM | 75 to 150 µM |  | Kcat (Mushroom tyrosinase [10]): 0.009 s⁻¹; Vmax (Mushroom tyrosinase [10]): 0.012 µM/min; Km (mushroom tyrosinase [11]): 860 µM; Kcat/Km (Mushroom tyrosinase [12]): 1.39 M⁻¹ s⁻¹; Retention_time (Mushroom tyrosinase [14]): 9.8 min |
| CN(/N=N/c1nc(OCc2ccccc2)c2nc[nH]c2n1)C(=O)Oc1ccccc1 |  |  |  |  |  |  |  | 24 to 3500 min |  |
| CN(/N=N/c1nc(OCc2ccccc2)c2nc[nH]c2n1)C(=O)c1cccnc1 |  |  |  |  |  |  |  | 1330 to 3500 min |  |
| CN(/N=N/c1nc(OCc2ccccc2)c2nc[nH]c2n1)C(=O)c1ccccc1 |  |  |  |  |  |  |  | 1330 to 3500 min |  |

Source: ChEMBL document CHEMBL4052670, “The selective cytotoxicity of new triazene compounds to human melanoma cells” (Bioorg Med Chem, 2017)
